The experiment deals with HPK1 (Homo sapiens, UniProt Q92918). In words: HPK1 Biochemical Assay (ADP-Glo luminescence; low ATP 10 μM or high ATP 200 μM). The following applies: 2 nM HPK1, 10 μM ATP; read-out: Biochemical Potency (low ATP). On the procedure: Dose-response assays were performed in Corning® Low Volume 384-well assay plates containing 100 nL of 22 serial 2-fold compound dilutions. Wells containing DMSO alone were used as negative control. A kinase mixture (5 μL) containing 2 nM HPK1 (or 5 nM for high ATP assay) in assay buffer (50 mM Hepes pH 7.4, 10 mM MgCl2, 0.01% Brij-15, 0.01% bovine serum albumin, and 1 mM dithiothreitol) was added to the assay plates and incubated at 25° C. for 1 hour. Wells without HPK1 were used as positive control. A […] of 10 μM ATP (or 200 μM for high ATP) and 0.2 μg/μL […] was then added to the wells, resulting in a 10 μL total reaction volume. Following incubation of the assay plates at 25° C. for 1 hour, 10 μL of ADP-Glo reagent was added to the wells and the plates were incubated at 25° C. for a further 40 minutes (or 1 hour for high ATP assay). Finally, 20 μL of Kinase Detection Reagent was added, and the plates were incubated for another 30 minutes at 25° C. An Envision plate reader was then used to detect the luminescence signals. IC50 values were determined by fitting the data to a standard 4-parameter logistic equation. The results are summarized in the Biochemical Potency columns of Tables 4 and 5 below (Biochemical Potency (high ATP); Biochemical Potency (low ATP)).
Sequence of HPK1 (Q92918 whole entry, species assumed): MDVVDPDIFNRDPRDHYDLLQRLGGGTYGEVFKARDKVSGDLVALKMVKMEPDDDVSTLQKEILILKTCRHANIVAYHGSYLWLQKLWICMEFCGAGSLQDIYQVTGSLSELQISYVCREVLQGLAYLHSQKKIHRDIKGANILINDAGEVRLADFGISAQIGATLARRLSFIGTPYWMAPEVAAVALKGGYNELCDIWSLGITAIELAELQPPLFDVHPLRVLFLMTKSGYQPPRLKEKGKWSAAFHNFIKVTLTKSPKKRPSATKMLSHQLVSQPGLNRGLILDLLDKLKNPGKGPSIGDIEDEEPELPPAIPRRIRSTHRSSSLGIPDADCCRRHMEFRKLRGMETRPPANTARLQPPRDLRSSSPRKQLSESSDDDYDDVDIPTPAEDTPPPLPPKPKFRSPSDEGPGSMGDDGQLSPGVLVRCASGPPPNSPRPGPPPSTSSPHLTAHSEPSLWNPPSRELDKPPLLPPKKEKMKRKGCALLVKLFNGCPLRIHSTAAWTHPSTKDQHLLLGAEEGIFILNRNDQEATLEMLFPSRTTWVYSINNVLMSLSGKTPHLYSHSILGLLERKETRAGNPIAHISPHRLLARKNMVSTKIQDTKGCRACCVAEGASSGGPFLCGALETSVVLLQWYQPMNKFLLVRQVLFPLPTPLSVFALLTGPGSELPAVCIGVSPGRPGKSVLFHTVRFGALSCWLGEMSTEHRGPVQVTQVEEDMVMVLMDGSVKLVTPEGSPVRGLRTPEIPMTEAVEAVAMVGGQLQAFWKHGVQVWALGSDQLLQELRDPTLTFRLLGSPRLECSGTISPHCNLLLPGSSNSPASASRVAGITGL

A value given as a limit tells only on which side of the number the result lay.

Take `Cc1cccnc1-c1nc2cc(Nc3ccc(C)c(N4C[C@H](N)C[C@@H]4CO)n3)ncc2s1` [Example 67, [(2R,4R)-4-Amino-1-(3-methyl-6-{[2-(3-methylpyridin-2-yl)-[1,3]thiazolo[5,4-c]pyridin-6-yl]amino}pyridin-2-yl)pyrrolidin-2-yl]methanol]: the IC50 is less than 100 nM.
The figure for `Cc1cccnc1-c1nc2cc(Nc3ccc(C)c(N4C[C@@H](N)C[C@@H]4CO)n3)ncc2s1` [Example 68, [(4S)-4-Amino-1-(3-methyl-6-{[2-(3-methylpyridin-2-yl)-[1,3]thiazolo[5,4-c]pyridin-6-yl]amino}pyridin-2-yl)pyrrolidin-2-yl]methanol] is less than 100 nM; for `Cc1cccnc1-c1nc2cc(Nc3ccc(C)c(N4CCC[C@H]4CN)n3)ncc2s1` [Example 72, 6-[(2S)-2-(Aminomethyl)pyrrolidin-1-yl]-5-methyl-N-[2-(3-methylpyridin-2-yl)-[1,3]thiazolo[5,4-c]pyridin-6-yl]pyridin-2-amine] it is less than 100 nM; for `Cc1cc(Nc2cc3nc(-c4ccnc(C)c4)sc3cn2)nc(N2CCC(C)(N)C2)c1` (centres unmarked) [Example 73, 6-(3-Amino-3-methylpyrrolidin-1-yl)-4-methyl-N-[2-(2-methylpyridin-4-yl)-[1,3]thiazolo[5,4-c]pyridin-6-yl]pyridin-2-amine] it is less than 100 nM.
As for `Cc1cccnc1-c1nc2cc(Nc3ccc(C)c(N4CC[C@H](N)C4)n3)ncc2s1` [Example 75, 6-[(3S)-3-Aminopyrrolidin-1-yl]-5-methyl-N-[2-(3-methylpyridin-2-yl)-[1,3]thiazolo[5,4-c]pyridin-6-yl]pyridin-2-amine], the IC50 was less than 100 nM.
The figure for `Cc1cccnc1-c1nc2cc(Nc3ccc(C)c(N4C[C@H](O)C[C@H]4CO)n3)ncc2s1` [Example 77, (3R,5S)-5-(Hydroxymethyl)-1-(3-methyl-6-{[2-(3-methylpyridin-2-yl)-[1,3]thiazolo[5,4-c]pyridin-6-yl]amino}pyridin-2-yl)pyrrolidin-3-ol] is less than 100 nM; for `Cc1cccnc1-c1nc2cc(Nc3cc(N4C[C@@H]5C[C@H]4CN5)ccn3)ncc2s1` [Example 86, 4-[(1S,4S)-2,5-Diazabicyclo[2.2.1]heptan-2-yl]-N-[2-(3-methylpyridin-2-yl)-[1,3]thiazolo[5,4-c]pyridin-6-yl]pyridin-2-amine] it is greater than 5000 nM; for `Cc1cccnc1-c1nc2cc(Nc3cccc(N4C[C@H]5C[C@@H]4CN5C)n3)ncc2s1` [Example 91, 6-[(1R,4R)-5-Methyl-2,5-diazabicyclo[2.2.1]heptan-2-yl]-N-[2-(3-methylpyridin-2-yl)-[1,3]thiazolo[5,4-c]pyridin-6-yl]pyridin-2-amine] it is less than 100 nM.
As for `Cc1cccnc1-c1nc2cc(Nc3cccc(N4CCN(C)[C@@H](C)C4)n3)ncc2s1` [Example 94, 6-[(3S)-3,4-Dimethylpiperazin-1-yl]-N-[2-(3-methylpyridin-2-yl)-[1,3]thiazolo[5,4-c]pyridin-6-yl]pyridin-2-amine], the IC50 was less than 100 nM.
The same measure for `Cc1cccnc1-c1nc2cc(Nc3cccc(N4CCN(C)C[C@@H]4C)n3)ncc2s1` [Example 95, 6-[(2S)-2,4-Dimethylpiperazin-1-yl]-N-[2-(3-methylpyridin-2-yl)-[1,3]thiazolo[5,4-c]pyridin-6-yl]pyridin-2-amine]: 1000 to 5000 nM; for `Cc1cccnc1-c1nc2cc(Nc3cccc(N4CC5CC(C4)N5C)n3)ncc2s1` [Example 98, 6-{6-Methyl-3,6-diazabicyclo[3.1.1]heptan-3-yl}-N-[2-(3-methylpyridin-2-yl)-[1,3]thiazolo[5,4-c]pyridin-6-yl]pyridin-2-amine]: less than 100 nM; for `Cc1cccnc1-c1nc2cc(Nc3cccc(N4C5CC4CN(C)C5)n3)ncc2s1` [Example 99, 6-{3-Methyl-3,6-diazabicyclo[3.1.1]heptan-6-yl}-N-[2-(3-methylpyridin-2-yl)-[1,3]thiazolo[5,4-c]pyridin-6-yl]pyridin-2-amine]: 1000 to 5000 nM.
The same measure for `Cc1cccnc1-c1nc2cc(Nc3cccc(N4C[C@H](C)N(C)[C@@H](C)C4)n3)ncc2s1` [Example 102, N-[2-(3-Methylpyridin-2-yl)-[1,3]thiazolo[5,4-c]pyridin-6-yl]-6-[(3S,5S)-3,4,5-trimethylpiperazin-1-yl]pyridin-2-amine]: 100 to 1000 nM.
The figure for `Cc1cccnc1-c1nc2cc(Nc3cccc(N4CCN(C)C[C@H]4C)n3)ncc2s1` [Example 103, 6-[(2R)-2,4-Dimethylpiperazin-1-yl]-N-[2-(3-methylpyridin-2-yl)-[1,3]thiazolo[5,4-c]pyridin-6-yl]pyridin-2-amine] is 100 to 1000 nM; for `Cc1cccnc1-c1nc2cc(Nc3cccc(N4CCN(C)[C@H](C)C4)n3)ncc2s1` [Example 104, 6-[(3R)-3,4-Dimethylpiperazin-1-yl]-N-[2-(3-methylpyridin-2-yl)-[1,3]thiazolo[5,4-c]pyridin-6-yl]pyridin-2-amine] it is less than 100 nM; for `Cc1cccnc1-c1nc2cc(Nc3ccc(C)c(N4C[C@H]5CC[C@@H](C4)[C@H]5O)n3)ncc2s1` [Example 106, (1R,5S,8S)-3-(3-Methyl-6-{[2-(3-methylpyridin-2-yl)-[1,3]thiazolo[5,4-c]pyridin-6-yl]amino}pyridin-2-yl)-3-azabicyclo[3.2.1]octan-8-ol] it is less than 100 nM.
Take `Cc1cccnc1-c1nc2cc(Nc3cccc(N4CC5CCC(C4)N5C)n3)ncc2s1` [Example 107, 6-{8-Methyl-3,8-diazabicyclo[3.2.1]octan-3-yl}-N-[2-(3-methylpyridin-2-yl)-[1,3]thiazolo[5,4-c]pyridin-6-yl]pyridin-2-amine]: the IC50 was less than 100 nM.
As for `Cc1cccnc1-c1nc2cc(Nc3cccc(N4C[C@@H]5CCN(C)[C@@H]5C4)n3)ncc2s1` [Example 111, 6-[(3aS,6aS)-1-Methyl-octahydropyrrolo[3,4-b]pyrrol-5-yl]-N-[2-(3-methylpyridin-2-yl)-[1,3]thiazolo[5,4-c]pyridin-6-yl]pyridin-2-amine], the IC50 was less than 100 nM.
With `Cc1cccnc1-c1nc2cc(Nc3cccc(N4CCN5CCC[C@H]5C4)n3)ncc2s1` [Example 113, 6-[(8aS)—Octahydropyrrolo[1,2-a]pyrazin-2-yl]-N-[2-(3-methylpyridin-2-yl)-[1,3]thiazolo[5,4-c]pyridin-6-yl]pyridin-2-amine], the IC50 was less than 100 nM.
The figure for `Cc1cccnc1-c1nc2cc(Nc3cccc(N4C[C@@H]5C[C@H]4CN5C4CCOCC4)n3)ncc2s1` [Example 117, N-[2-(3-Methylpyridin-2-yl)-[1,3]thiazolo[5,4-c]pyridin-6-yl]-6-[(1S,4S)-5-(oxan-4-yl)-2,5-diazabicyclo[2.2.1]heptan-2-yl]pyridin-2-amine] is less than 100 nM; for `COc1ccc(N2C[C@@H]3C[C@H]2CN3C)nc1Nc1cc2nc(-c3ncccc3C)sc2cn1` [Example 118, 3-Methoxy-6-[(1S,4S)-5-methyl-2,5-diazabicyclo[2.2.1]heptan-2 yl]-N-[2-(3-methylpyridin-2-yl)-[1,3]thiazolo[5,4-c]pyridin-6-yl]pyridin-2-amine] it is less than 100 nM.
Consider `CN1C[C@@H]2C[C@H]1CN2c1nccc(Nc2cc3nc(-c4ccnc(C(C)(C)O)c4)sc3cn2)n1` [Example 121, 2-{4-[6-({2-[(1S,4S)-5-Methyl-2,5-diazabicyclo[2.2.1]heptan-2-yl]pyrimidin-4-yl}amino)-[1,3]thiazolo[5,4-c]pyridin-2-yl]pyridin-2-yl}propan-2-ol], for which the IC50 is less than 100 nM.
For `CN1C[C@@H]2C[C@H]1CN2c1nccc(Nc2cc3nc(-c4cccc(C(C)(C)O)c4)sc3cn2)n1` [Example 122, 2-{3-[6-({2-[(1S,4S)-5-Methyl-2,5-diazabicyclo[2.2.1]heptan-2-yl]pyrimidin-4-yl}amino)-[1,3]thiazolo[5,4-c]pyridin-2-yl]phenyl}propan-2-ol], the IC50 was less than 100 nM.
The same measure for `CN1C[C@@H]2C[C@H]1CN2c1cncc(Nc2cc3nc(-c4cc(N5CC[C@H](F)C5)ccn4)sc3cn2)n1` [Example 124, N-(2-{4-[(3S)-3-Fluoropyrrolidin-1-yl]pyridin-2-yl}-[1,3]thiazolo[5,4-c]pyridin-6-yl)-6-[(1S,4S)-5-methyl-2,5-diazabicyclo[2.2.1]heptan-2-yl]pyrazin-2-amine]: less than 100 nM; for `CN1C[C@@H]2C[C@H]1CN2c1cncc(Nc2cc3nc(-c4cc(N5CC[C@@H](F)C5)ccn4)sc3cn2)n1` [Example 125, N-(2-{4-[(3R)-3-Dluoropyrrolidin-1-yl]pyridin-2-yl}-[1,3]thiazolo[5,4-c]pyridin-6-yl)-6-[(1S,4S)-5-methyl-2,5-diazabicyclo[2.2.1]heptan-2-yl]pyrazin-2-amine]: less than 100 nM; for `CN1C[C@@H]2C[C@H]1CN2c1nccc(Nc2cc3nc(-c4cccc(C(=O)N5CCCC5)c4)sc3cn2)n1` [Example 126, 2-[(1S,4S)-5-Methyl-2,5-diazabicyclo[2.2.1]heptan-2-yl]-N-{2-[3-(pyrrolidine-1-carbonyl)phenyl]-[1,3]thiazolo[5,4-c]pyridin-6-yl}pyrimidin-4-amine]: less than 100 nM.

For the origin of these results see patent US12649751B2 (Arcus Biosciences, Inc., priority 2022, dated 2026).
